From the NIST ThermoML archive (doi:10.1016/j.jct.2015.01.003)

Experiment: excess molar enthalpy (molar enthalpy of mixing); xn = mol fraction of the nth substance listed
Details: 100 kPa, Liquid, Flow calorimetry

Cc1ccccc1 [toluene] + CCCO
excess molar enthalpy [kcal/mol]
Details | 298.15 K | 313.15 K
x1 = 0.0503 | 0.0239 | 0.0339
x1 = 0.0998 | 0.0488 | 0.0681
x1 = 0.1497 | 0.0731 | 0.0994
x1 = 0.2 | 0.098 | –
x1 = 0.2001 | – | 0.133
x1 = 0.2506 | 0.122 | –
x1 = 0.2507 | – | 0.163
x1 = 0.2997 | 0.144 | 0.191
x1 = 0.3506 | 0.165 | –
x1 = 0.3507 | – | 0.217
x1 = 0.3997 | 0.183 | –
x1 = 0.3998 | – | 0.238
x1 = 0.4505 | 0.201 | –
x1 = 0.4506 | – | 0.258
x1 = 0.5012 | 0.214 | –
x1 = 0.5013 | – | 0.273
x1 = 0.5495 | 0.225 | 0.285
x1 = 0.5993 | 0.233 | –
x1 = 0.5995 | – | 0.293
x1 = 0.651 | 0.238 | 0.297
x1 = 0.6997 | 0.238 | –
x1 = 0.6998 | – | 0.296
x1 = 0.7501 | 0.234 | 0.288
x1 = 0.7996 | 0.223 | 0.273
x1 = 0.8506 | 0.205 | –
x1 = 0.8507 | – | 0.248
x1 = 0.9007 | – | 0.21
x1 = 0.9008 | 0.176 | –
x1 = 0.9496 | 0.126 | 0.143

c1ccccc1 [benzene] + CCCO
Details | excess molar enthalpy [kcal/mol]
298.15 K, x1 = 0.0492 | 0.0253
298.15 K, x1 = 0.0993 | 0.0523
298.15 K, x1 = 0.1503 | 0.0798
298.15 K, x1 = 0.2006 | 0.106
298.15 K, x1 = 0.2499 | 0.132
298.15 K, x1 = 0.3001 | 0.156
298.15 K, x1 = 0.3493 | 0.178
298.15 K, x1 = 0.3994 | 0.198
298.15 K, x1 = 0.4505 | 0.217
298.15 K, x1 = 0.5004 | 0.231
298.15 K, x1 = 0.5491 | 0.243
298.15 K, x1 = 0.5987 | 0.251
298.15 K, x1 = 0.6492 | 0.256
298.15 K, x1 = 0.7006 | 0.255
298.15 K, x1 = 0.7507 | 0.249
298.15 K, x1 = 0.7994 | 0.237
298.15 K, x1 = 0.8489 | 0.217
298.15 K, x1 = 0.8992 | 0.184
298.15 K, x1 = 0.9504 | 0.128
313.15 K, x1 = 0.0493 | 0.0325
313.15 K, x1 = 0.0995 | 0.0662
313.15 K, x1 = 0.1506 | 0.1
313.15 K, x1 = 0.2009 | 0.133
313.15 K, x1 = 0.2503 | 0.162
313.15 K, x1 = 0.3005 | 0.191
313.15 K, x1 = 0.3498 | 0.217
313.15 K, x1 = 0.3999 | 0.24
313.15 K, x1 = 0.451 | 0.262
313.15 K, x1 = 0.5009 | 0.278
313.15 K, x1 = 0.5497 | 0.291
313.15 K, x1 = 0.5993 | 0.299
313.15 K, x1 = 0.6497 | 0.303
313.15 K, x1 = 0.701 | 0.3
313.15 K, x1 = 0.7511 | 0.291
313.15 K, x1 = 0.7997 | 0.276
313.15 K, x1 = 0.8491 | 0.25
313.15 K, x1 = 0.8994 | 0.209
313.15 K, x1 = 0.9505 | 0.14
